# Starred links: 1 amine or outer side, 2 acyl side, 3 side chain; linkers in the order of their positions; H or OH if unused. Residues, ends and D or L forms follow the SMILES beside them. Groups on a side chain read outwards from the residue. *: point of attachment. γGlu = O=C(O)[C@H](CCC(=O)[*:2])N[*:1]; Palmitoyl = CCCCCCCCCCCCCCCC(=O)*
# Test system: urinary metabolites
# Assay: NMR-based metabolomics of urine of DIO mice
# Type: in vivo, C57BL/6 mice
# Set-up: key to DMA, Mean / DMG, Mean / MA, Mean / TMA, Mean / acetate, Mean / allantoin, Mean / carnitine, Mean / choline, Mean / cis-aconitate, Mean / creatine+creatinine, Mean / creatine, Mean / creatinine, Mean / ethanolamine, Mean / formate, Mean / galactose, Mean / glucose, Mean / glycine, Mean / lactate, Mean / succinate, Mean / vinylacetylglycine, Mean: TSA-normalized intensity of the metabolite's representative NMR signal
# Conditions: urine NMR signal, DIO mice
# Experimental: Urine samples for NMR-based metabolomics were collected prior to the start of the interventions and at the end of the experiment. For overnight urine collection (from 5 pm to 8 am), the mice were housed in individual metabolic cages (Tecniplast, Buguggiate, Italy) without access to food. Samples were collected with the addition of NaN3 and stored at -80°C until NMR analysis.
# The urine samples were thawed at room temperature and centrifuged at 13 684 x g for 5 min prior to the NMR experiments. A 200-μl aliquot of supernatant was diluted with 340 μl of H2O mixed with 60 μl of phosphate buffer (1.5 M KH2PO4 in D2O containing 2 mM NaN3 and 0.1% trimethylsilyl propionic acid (TSP), pH 7.4) and transferred to a 5-mm NMR tube. The NMR data were acquired with a 600 MHz Bruker Avance III spectrometer (Bruker BioSpin, Rheinstetten, Germany) equipped with a 5-mm TCI cryogenic probe head. All of the experiments were performed at 300 K. Automatic tuning, matching, shimming and adjusting of the 90° pulse length were performed for each sample.
# As mouse urine naturally contains urinary proteins, the NMR spectra were acquired using a Carr-Purcell-Meiboom-Gill (CPMG) pulse sequence with water presaturation (Bruker pulse sequence cpmgpr1d) to eliminate the strong protein background. […] For better metabolite identification, a short J-resolved experiment with presaturation (NS = 2, SW = 16 ppm, TD = 8k, number of increments = 40, SW = 78.125 Hz in the indirect dimension, and relaxation delay = 2 s) was executed for all samples. Additional two-dimensional ^1H-^1H correlation spectroscopy (COSY) and ^1H-^13C heteronuclear multiple-quantum correlation (HMQC) experiments (Bruker pulse sequences cosygpprqf and hmqcphpr) were performed for selected samples.
# The acquired data were processed using Topspin 3.2 software (Bruker BioSpin, Rheinstetten, Germany). Line broadening of 0.3 Hz was applied on free induction decays (FIDs) prior to Fourier transformation. The spectra were automatically phased, baseline corrected and referenced to the signal of TSP (0.00 ppm).
# The assignment of individual metabolites was achieved by comparing the proton spectra with the spectra of pure metabolites using Chenomx NMR Suite 7.6 (Chenomx Inc., Edmonton, AB, Canada), the HMDB database and previously published metabolomic data. The identification of metabolites was supported through J-resolved and COSY experiments and, if possible, confirmed using carbon chemical shifts extracted from the HMQC spectra.
# For quantitation of individual metabolites, the CPMG spectra were uniformly binned in the range of 0.10–10.00 ppm to 0.01-ppm intervals using AMIX software (Bruker BioSpin, Rheinstetten, Germany). This procedure reduced the dimensionality of the data, eliminated chemical shift variations and thus simplified the reproducible automatic quantification. Regions corresponding to water (4.60–4.90 ppm) and urea (5.60–6.00 ppm) were removed prior to analysis. As the dilutions of the original urine samples differed (due to the differences in water intake during urine collection), all of the spectra were normalized to the total spectral area (TSA). For each identified metabolite, one representative signal was chosen and then quantified as the sum of appropriate adjacent 0.01-ppm bins to cover the whole signal width. The metabolite concentration was expressed as the TSA-normalized intensity of the respective signal. For selection of an appropriate statistical method (parametric or non-parametric) the Lilliefors test of normality was performed. […] Metabolite alterations with a P < 0.05 were considered statistically significant. Statistical analysis was performed using Matlab software (“MATLAB version 8.6 (R2015b). Natick, Massachusetts: The MathWorks Inc., 2015.,” n.d.). […]
smiles,measurement,setting,value
CCCCCCCCCCCCCCCC(=O)N[C@@H](CCC(=O)NCCCC[C@H](NC(=O)[C@@H](NC(=O)[C@H](CCC(=O)O)NC(=O)[C@H](CCSC)NC(=O)[C@H](CO)NC(=O)[C@H](Cc1c[nH]cn1)NC(=O)[C@H](CCCNC(=N)N)NC(=O)[C@H](Cc1c[nH]cn1)NC(=O)[C@@H](NC(=O)[C@H](CCCNC(=N)N)NC(=O)[C@@H](N)CO)[C@@H](C)O)[C@@H](C)CC)C(=O)N[C@H](C(=O)N1CCC[C@H]1C(=O)N[C@@H](CC(=O)O)C(=O)N[C@H](C(=O)N[C@@H](CC(N)=O)C(=O)N1CCC[C@H]1C(=O)N[C@@H](C)C(=O)N[C@@H](Cc1c[nH]c2ccccc12)C(=O)N[C@@H](Cc1ccc(O)cc1)C(=O)N[C@@H](C)C(=O)N[C@@H](CO)C(=O)N[C@@H](CCCNC(=N)N)C(=O)NCC(=O)N[C@H](C(=O)N[C@@H](CCCNC(=N)N)C(=O)N1CCC[C@H]1C(=O)N[C@H](C(=O)NCC(=O)N[C@@H](CCCNC(=N)N)C(=O)N[C@@H](Cc1ccccc1)C(N)=O)C(C)C)[C@@H](C)CC)[C@@H](C)CC)[C@@H](C)O)C(=O)O [analog 1] (H-SRTHRHSMEIK([γGlu-Palmitoyl])TPDINPAWYASRGIRPVGRF-NH2; N-terminus assumed),"2-OG (2.45 ppm), Saline/analog1 %",change of group mean vs saline,0.026%
same,"2-OG (3.01 ppm), Saline/analog1 %",change of group mean vs saline,-0.000867%
same,"2-PY (8.33 ppm), Saline/analog1 %",change of group mean vs saline,-0.107%
same,"3-indoxylsulfate (7.51 ppm), Saline/analog1 %",change of group mean vs saline,0.024%
same,"3-indoxylsulfate (7.71 ppm), Saline/analog1 %",change of group mean vs saline,0.023%
same,"4-PY (7.97 ppm), Saline/analog1 %",change of group mean vs saline,-0.088%
same,"4-PY (8.55 ppm), Saline/analog1 %",change of group mean vs saline,-0.153%
same,"DMA, Saline/analog1 %",change of group mean vs saline,0.019%
same,"MNA-Nox (8.75 ppm), Saline/analog1 %",change of group mean vs saline,-0.117%
same,"N-carbamoylalanine (2.38 ppm), Saline/analog1 %",change of group mean vs saline,0.020%
same,"N-carbamoylalanine (3.31 ppm), Saline/analog1 %",change of group mean vs saline,-0.071%
same,"N-isovalerylglycine + oxovalerate (0.92 ppm), Saline/analog1 %",change of group mean vs saline,0.093%
same,"TMA, Saline/analog1 %",change of group mean vs saline,-0.084%
same,"acetate, Saline/analog1 %",change of group mean vs saline,0.161%
same,"allantoin, Saline/analog1 %",change of group mean vs saline,0.042%
same,"carnitine, Saline/analog1 %",change of group mean vs saline,0.063%
same,"choline, Saline/analog1 %",change of group mean vs saline,0.027%
same,"cis-aconitate, Saline/analog1 %",change of group mean vs saline,-0.010%
same,"citrate (2.55 ppm), Saline/analog1 %",change of group mean vs saline,-0.078%
same,"citrate (2.69 ppm), Saline/analog1 %",change of group mean vs saline,-0.081%
same,"creatine+creatinine, Saline/analog1 %",change of group mean vs saline,0.078%
same,"creatine, Saline/analog1 %",change of group mean vs saline,-0.018%
same,"creatinine, Saline/analog1 %",change of group mean vs saline,0.087%
same,"ethanolamine, Saline/analog1 %",change of group mean vs saline,-0.040%
same,"formate, Saline/analog1 %",change of group mean vs saline,0.026%
same,"fumarate, Saline/analog1 %",change of group mean vs saline,-0.176%
same,"galactose, Saline/analog1 %",change of group mean vs saline,-0.073%
same,"glucose, Saline/analog1 %",change of group mean vs saline,-0.101%
same,"glycine, Saline/analog1 %",change of group mean vs saline,-0.064%
same,"hexanoylglycine + acids (0.88 ppm), Saline/analog1 %",change of group mean vs saline,0.195%
same,"hippurate (7.55 ppm), Saline/analog1 %",change of group mean vs saline,-0.067%
same,"hippurate (7.64 ppm), Saline/analog1 %",change of group mean vs saline,-0.069%
same,"hippurate (7.84 ppm), Saline/analog1 %",change of group mean vs saline,-0.067%
same,"lactate, Saline/analog1 %",change of group mean vs saline,0.188%
same,"multiplet acids (1.6 ppm), Saline/analog1 %",change of group mean vs saline,0.198%
same,"putrescin, Saline/analog1 %",change of group mean vs saline,0.025%
same,"succinate, Saline/analog1 %",change of group mean vs saline,0.118%
same,"taurine (3.27 ppm), Saline/analog1 %",change of group mean vs saline,-0.289%
same,"taurine (3.43 ppm), Saline/analog1 %",change of group mean vs saline,-0.352%
same,"trigonelline (8.84 ppm), Saline/analog1 %",change of group mean vs saline,-0.128%
same,"trigonelline (9.13 ppm), Saline/analog1 %",change of group mean vs saline,-0.163%
same,"vinylacetylglycine, Saline/analog1 %",change of group mean vs saline,0.197%
same,"2-OG (2.45 ppm), Mean",group mean,12.062
same,"2-OG (3.01 ppm), Mean",group mean,10.231
same,"2-PY (8.33 ppm), Mean",group mean,1.038
same,"3-indoxylsulfate (7.51 ppm), Mean",group mean,1.334
same,"3-indoxylsulfate (7.71 ppm), Mean",group mean,0.788
same,"4-PY (7.97 ppm), Mean",group mean,1.650
same,"4-PY (8.55 ppm), Mean",group mean,0.491
same,"DMA, Mean",group mean,5.115
same,"DMG, Mean",group mean,1.908
same,"MA, Mean",group mean,2.952
same,"MNA (8.90 ppm), Mean",group mean,0.369
same,"MNA (8.97 ppm), Mean",group mean,0.353
same,"MNA (9.265 ppm), Mean",group mean,0.370
same,"MNA-Nox (7.75 ppm), Mean",group mean,0.962
same,"MNA-Nox (8.13 ppm), Mean",group mean,0.690
same,"MNA-Nox (8.49 ppm), Mean",group mean,0.452
same,"MNA-Nox (8.75 ppm), Mean",group mean,0.431
same,"N-carbamoylalanine (2.38 ppm), Mean",group mean,10.982
same,"N-carbamoylalanine (3.31 ppm), Mean",group mean,8.810
same,"N-isovalerylglycine + oxovalerate (0.92 ppm), Mean",group mean,15.843
same,"TMA, Mean",group mean,11.127
same,"acetate, Mean",group mean,4.363
same,"allantoin, Mean",group mean,21.031
same,"carnitine, Mean",group mean,6.328
same,"choline, Mean",group mean,2.023
same,"cis-aconitate, Mean",group mean,8.788
same,"citrate (2.55 ppm), Mean",group mean,30.039
same,"citrate (2.69 ppm), Mean",group mean,27.401
same,"creatine+creatinine, Mean",group mean,24.594
same,"creatine, Mean",group mean,6.851
same,"creatinine, Mean",group mean,12.065
same,"ethanolamine, Mean",group mean,7.631
same,"formate, Mean",group mean,0.204
same,"fumarate, Mean",group mean,0.145
same,"galactose, Mean",group mean,0.718
same,"glucose, Mean",group mean,3.260
same,"glycine, Mean",group mean,5.697
same,"hexanoylglycine + acids (0.88 ppm), Mean",group mean,15.760
same,"hippurate (7.55 ppm), Mean",group mean,4.327
same,"hippurate (7.64 ppm), Mean",group mean,2.207
same,"hippurate (7.84 ppm), Mean",group mean,4.594
same,"lactate, Mean",group mean,7.323
same,"multiplet acids (1.6 ppm), Mean",group mean,12.799
same,"putrescin, Mean",group mean,9.134
same,"succinate, Mean",group mean,12.041
same,"taurine (3.27 ppm), Mean",group mean,18.310
same,"taurine (3.43 ppm), Mean",group mean,14.649
same,"trigonelline (8.84 ppm), Mean",group mean,0.272
same,"trigonelline (9.13 ppm), Mean",group mean,0.107
same,"vinylacetylglycine, Mean",group mean,3.595

# — article PMC5562305, “Impact of novel palmitoylated prolactin-releasing peptide analogs on metabolic changes in mice with diet-induced obesity” (PLoS ONE, 2017)
